According to patent US12157730B2, “Heteroaryl derivative, method for producing same, and pharmaceutical composition comprising same as effective component” (VORONOI INC., priority 2019, dated 2024):

Molecular target: T1, Ba/F3 cell EGFR Exon20 ins NPH (Homo sapiens, UniProt P00533, INS773NPH)
T1 construct: expressed in transfected cells; host or cells: Ba/F3
Test: Ba/F3 cell proliferation suppression, EGFR Exon20 ins NPH
Type: cell-based
Settings: GI50 class; Ba/F3 cell line with NPH inserted at Exon20 of EGFR; 72 hours
How it was run: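 Cells (3000–5000/well) plated 24 h before compound, 12-point 3-fold dilutions at 0.3 nM to 50 um final; Ba/F3 lines grown with 5 ng/ml IL-3. Viability by CellTiter-Glo luminescence after 72 h, growth ratio vs control, GI50 from curves; triplicate.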

Structure (SMILES)	Ba/F3 (NPH) Activity
C=CC(=O)Nc1cc(Nc2cc(N3OCC[C@@H]3c3cccc(F)c3F)ncn2)c(OC)cc1N1CCN(C)[C@H](C)C1 [compound 884, N-(5-((6-((R)-3-(2,3-difluorophenyl)isoxazolidine-2-yl)pyrimidine-4-yl)amino)-2-((R)-3,4-dimethylpiperazine-1-yl)-4-methoxyphenyl) acrylamide]	A (GI50 < 50 nM)
C=CC(=O)Nc1cc(Nc2cc(N3OCC[C@@H]3c3cccc(F)c3Cl)ncn2)c(OC)cc1N1CCC(N2CCN(C3CC3)C[C@H]2C)CC1 [Example 143, N-(5-((6-((R)-3-(2-chloro-3-fluorophenyl)isoxazolidine-2-yl)pyrimidine-4-yl)amino)-2-(4-((R)-4-cyclopropyl-2-methylpiperazine-1-yl)piperidine-1-yl)-4-methoxyphenyl) acrylamide]	A (GI50 < 50 nM)
C=CC(=O)Nc1cc(Nc2cc(N3OCC[C@@H]3c3cccc(Cl)c3F)ncn2)c(OC)cc1N1CCC(N2CCC(N(C)C)CC2)CC1 [compound 915, N-(5-((6-((R)-3-(3-chloro-2-fluorophenyl)isoxazolidine-2-yl)pyrimidine-4-yl)amino)-2-(4-(dimethylamino)-[1,4'-bipiperidine]-1'-yl)-4-methoxyphenyl) acrylamide]	B (50 nM ≤ GI50 < 500 nM)
C=CC(=O)Nc1cc(Nc2cc(N3OCC[C@@H]3Cc3cccc(Cl)c3Cl)ncn2)c(OC)cc1N1CCN(CC)CC1 [compound 1008, N-(5-((6-((S)-3-(2,3-dichlorobenzyl)isoxazolidine-2-yl)pyrimidine-4-yl)amino)-2-(4-ethylpiperazine-1-yl)-4-methoxyphenyl) acrylamide]	A (GI50 < 50 nM)
C=CC(=O)Nc1cc(Nc2cc(N3OCC[C@@H]3c3cccc(Cl)c3F)ncn2)c(OC)cc1N1CCC(N2CCN(C3CC3)[C@H](C)C2)CC1 [Example 180, N-(5-((6-((R)-3-(3-chloro-2-fluorophenyl)isoxazolidine-2-yl)pyrimidine-4-yl)amino)-2-(4-((R)-4-cyclopropyl-3-methylpiperazine-1-yl)piperidine-1-yl)-4-methoxyphenyl) acrylamide]	A (GI50 < 50 nM)
C=CC(=O)Nc1cc(Nc2cc(N3OCC[C@@H]3Cc3ccccc3)ncn2)c(OC)cc1N1CCC(N2CCN(C3CC3)CC2)CC1 [compound 955, N-(5-((6-((S)-3-benzylisoxazolidine-2-yl)pyrimidine-4-yl)amino)-2-(4-(4-cyclopropylpiperazine-1-yl)piperidine-1-yl)-4-methoxyphenyl) acrylamide]	A (GI50 < 50 nM)
C=CC(=O)Nc1cc(Nc2cc(N3OCC[C@@H]3c3ccc(F)c(F)c3)ncn2)c(OC)cc1N1CCC(N2CCN(C(C)=O)CC2)CC1 [compound 544, N-(2-(4-(4-acetylpiperazine-1-yl)piperidine-1-yl)-5-((6-((R)-3-(3,4-difluorophenyl)isoxazolidine-2-yl)pyrimidine-4-yl)amino)-4-methoxyphenyl) acrylamide]	A (GI50 < 50 nM)
C=CC(=O)Nc1cc(Nc2cc(N3OCC[C@@H]3c3ccccc3)ncn2)c(OC)cc1N1CCC(N2C[C@H]3C[C@@H]2CO3)CC1 [Example 53, N-(2-(4-((1R,4R)-2-oxa-5-azabicyclo[2.2.1]heptane-5-yl)piperidine-1-yl)-4-methoxy-5-((6-((R)-3-phenylisoxazolidine-2-yl)pyrimidine-4-yl)amino)phenyl) acrylamide]	A (GI50 < 50 nM)
C=CC(=O)Nc1cc(Nc2cc(N3OCC[C@@H]3c3ccc(F)cc3F)ncn2)c(OC)cc1N1C[C@@H]2C[C@H]1CO2 [compound 324, N-(2-((1S,4S)-2-oxa-5-azabicyclo[2.2.1]heptane-5-yl)-5-((6-((R)-3-(2,4-difluorophenyl)isoxazolidine-2-yl)pyrimidine-4-yl)amino)-4-methoxyphenyl) acrylamide]	A (GI50 < 50 nM)
C=CC(=O)Nc1cc(Nc2cc(N3OCC[C@@H]3Cc3cccc(Cl)c3F)ncn2)c(OC)cc1N1CCC(N2CCN(C3CC3)CC2)CC1 [compound 1020, N-(5-((6-((S)-3-(3-chloro-2-fluorobenzyl)isoxazolidine-2-yl)pyrimidine-4-yl)amino)-2-(4-(4-cyclopropylpiperazine-1-yl)piperidine-1-yl)-4-methoxyphenyl) acrylamide]	A (GI50 < 50 nM)
C=CC(=O)Nc1cc(Nc2cc(N3OCC[C@@H]3c3ccc(Cl)cc3)ncn2)c(OC)cc1N1CCC(N2C[C@@H](C)O[C@@H](C)C2)CC1 [compound 868, N-(5-((6-((R)-3-(4-chlorophenyl)isoxazolidine-2-yl)pyrimidine-4-yl)amino)-2-(4-((2S,6R)-2,6-dimethylmorpholino)piperidine-1-yl)-4-methoxyphenyl) acrylamide]	A (GI50 < 50 nM)
C=CC(=O)Nc1cc(Nc2cc(N3OCC[C@@H]3c3ccc(F)c(Cl)c3)ncn2)c(OC)cc1N1CCC(N2CCN(C)[C@@H](C)C2)CC1 [compound 900, N-(5-((6-((R)-3-(3-chloro-4-fluorophenyl)isoxazolidine-2-yl)pyrimidine-4-yl)amino)-2-(4-((S)-3,4-dimethylpiperazine-1-yl)piperidine-1-yl)-4-methoxyphenyl) acrylamide]	A (GI50 < 50 nM)
C=CC(=O)Nc1cc(Nc2cc(N3OCC[C@@H]3c3cc(F)cc(F)c3)ncn2)c(OC)cc1N1CCC(N2CCN(C3CC3)C[C@H]2C)CC1 [Example 112, N-(2-(4-((R)-4-cyclopropyl-2-methylpiperazine-1-yl)piperidine-1-yl)-5-((6-((R)-3-(3,5-difluorophenyl)isoxazolidine-2-yl)pyrimidine-4-yl)amino)-4-methoxyphenyl) acrylamide]	A (GI50 < 50 nM)
C=CC(=O)Nc1cc(Nc2cc(N3OCC[C@@H]3c3ccc(F)cc3F)ncn2)c(OC)cc1N1CCC(N2CCN(CC)CC2)CC1 [compound 424, N-(5-((6-((R)-3-(2,4-difluorophenyl)isoxazolidine-2-yl)pyrimidine-4-yl)amino)-2-(4-(4-ethylpiperazine-1-yl)piperidine-1-yl)-4-methoxyphenyl) acrylamide]	A (GI50 < 50 nM)

The remaining lines, values ahead:

Ba/F3 (NPH) Activity	Structure (SMILES)
A (GI50 < 50 nM)	C=CC(=O)Nc1cc(Nc2cc(N3OCC[C@@H]3Cc3cccc(Cl)c3Cl)ncn2)c(OC)cc1N1CCC(N2CCN(C3CC3)CC2)CC1 [compound 1009, N-(2-(4-(4-cyclopropylpiperazine-1-yl)piperidine-1-yl)-5-((6-((S)-3-(2,3-dichlorobenzyl)isoxazolidine-2-yl)pyrimidine-4-yl)amino)-4-methoxyphenyl) acrylamide]
A (GI50 < 50 nM)	C=CC(=O)Nc1cc(Nc2cc(N3OCC[C@@H]3Cc3ccc(C(F)(F)F)cc3)ncn2)c(OC)cc1N1CCC(N2C[C@@H]3C[C@H]2CO3)CC1 [compound 1052, N-(2-(4-((1S,4S)-2-oxa-5-azabicyclo [2.2.1]heptane-5-yl)piperidine-1-yl)-4-methoxy-5-((6-((S)-3-(4-(trifluoromethyl)benzyl)isoxazolidine-2-yl)pyrimidine-4-yl)amino)phenyl) acrylamide]
A (GI50 < 50 nM)	C=CC(=O)Nc1cc(Nc2cc(N3OCC[C@@H]3c3cccc(F)c3Cl)ncn2)c(OC)cc1N1CCC(N2C[C@@H]3C[C@H]2CO3)CC1 [compound 640, N-(2-(4-((1S,4S)-2-oxa-5-azabicyclo[2.2.1]heptane-5-yl)piperidine-1-yl)-5-((6-((R)-3-(2-chloro-3-fluorophenyl)isoxazolidine-2-yl)pyrimidine-4-yl)amino)-4-methoxyphenyl) acrylamide]
A (GI50 < 50 nM)	C=CC(=O)Nc1cc(Nc2cc(N3OCC[C@@H]3c3ccc(F)cc3F)ncn2)c(OC)cc1N1CCC(N(C)CCN(C)C)CC1 [compound 422, N-(5-((6-((R)-3-(2,4-difluorophenyl)isoxazolidine-2-yl)pyrimidine-4-yl)amino)-2-(4-((2-(dimethylamino)ethyl)(methyl)amino)piperidine-1-yl)-4-methoxyphenyl) acrylamide]
A (GI50 < 50 nM)	C=CC(=O)Nc1cc(Nc2cc(N3OCC[C@@H]3c3cccs3)ncn2)c(OC)cc1N(C)CCN(C)C [compound 928, N-(2-((2-(dimethylamino)ethyl) (methyl)amino)-4-methoxy-5-((6-((R)-3-(thiophene-2-yl)isoxazolidine-2-yl)pyrimidine-4-yl)amino)phenyl)acrylamide]
A (GI50 < 50 nM)	C=CC(=O)Nc1cc(Nc2cc(N3OCC[C@@H]3c3cccc(Cl)c3C)ncn2)c(OC)cc1N1CCC(N2CCN(CCC)CC2)CC1 [compound 582, N-(5-((6-((R)-3-(3-chloro-2-methylphenyl)isoxazolidine-2-yl)pyrimidine-4-yl)amino)-4-methoxy-2-(4-(4-propylpiperazine-1-yl)piperidine-1-yl)phenyl) acrylamide]
A (GI50 < 50 nM)	C=CC(=O)Nc1cc(Nc2cc(N3OCC[C@@H]3c3cc(F)cc(F)c3)ncn2)c(OC)cc1N1CCC(N2C[C@H]3CCN(C)[C@H]3C2)CC1 [compound 445, N-(5-((6-((R)-3-(3,5-difluorophenyl)isoxazolidine-2-yl)pyrimidine-4-yl)amino)-4-methoxy-2-(4-((3aR,6aR)-1-methylhexahydropyrrolo [3,4-b]pyrrole-5(1H)-yl)piperidine-1-yl)phenyl)acrylamide]
C (500 nM ≤ GI50 < 5000 nM)	C=CC(=O)Nc1cc(Nc2cc(N3OCC[C@H]3c3c(F)cccc3F)ncn2)c(OC)cc1N1CCC(N(C)C)CC1 [compound 308, N-(5-((6-((S)-3-(2,6-difluorophenyl)isoxazolidine-2-yl)pyrimidine-4-yl)amino)-2-(4-(dimethylamino)piperidine-1-yl)-4-methoxyphenyl) acrylamide]
